Measured values as given in patent publication US12280144B2, “Gel compositions for mitigation of burn injuries, kits containing the gel compositions, and associated methods” (priority 2019, dated 2025).

Tests used:
[1] = cited from earlier work; for pKa1 / pKa2: 25° C.; for pKa: Table 1, pKa of the parent weak acid of the sodium salt
[2] = at 25° C.; KCl and NaHCO3 values are assumed (NaHCO3: Leaist et al); cited from earlier work
[3] = Acid/base dissociation constants of weak acids and their sodium salts; conditions: anion of the salt in water; for Kb: Kb=10^−pKb
[4] = external use on burn wounds in HSST; cited from earlier work

O=C(O)CC(O)(CC(=O)O)C(=O)O [Citric Acid]
pKa1 [1]: 2.92
pKa2 [1]: 4.28
pKa3 [1]: 5.21

[Cl-].[K+] [KCl]
diffusivity in water DAB [2]: 13.6·10^−6 cm^2/s

CC(O)C(=O)O (stereo not shown) [Lactic Acid]
Kb [3]: 7.24*10^−12

O=C([O-])O.[Na+] [Sodium Bicarbonate]
Kb [3]: 2.24*10^−6
pKb ([3]; pKb=14.00−pKa, 25° C.): 7.65
pKa1 [1]: 6.35
pKa2 [1]: 10.3
pKa [1]: 6.35

CC(O)C(=O)[O-].[Na+] (stereo not shown) [Sodium Lactate]
pKa [1]: 3.86

O=C([O-])CC(O)(CC(=O)[O-])C(=O)[O-].[Na+].[Na+].[Na+] [Trisodium Citrate]
pKa [1]: 3.14

CCN(CC)CC(=O)Nc1c(C)cccc1C [lidocaine]
dosage considered safe for external use [4]: less than 400 mg
